Measured values published in the supplement of paper PMC10307832.

Assays:
Test in all cases: relative viability (nuclei count vs DMSO), 5 days (fraction); higher = more cells survive
Dovitinib + Palbociclib = compound: CN1CCN(c2ccc3nc(-c4c(N)c5c(F)cccc5[nH]c4=O)[nH]c3c2)CC1 [Dovitinib] + CC(=O)c1c(C)c2cnc(Nc3ccc(N4CCNCC4)cn3)nc2n(C2CCCC2)c1=O [Palbociclib] (partner 0.5 µM)
Procedure, shortened: (§1)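 Relative viability divides the nuclei count in treated wells by that in vehicle wells. Lung cancer cell lines were seeded in 1536-well plates, dosed by pin tool the next day, and fixed and stained after 5 days in one step with final 0.05% Triton X-100, 1% formaldehyde and 1 ug/ml Hoechst. Dosing was a single drug or a fixed anchor-drug dose plus five library-drug doses (not always all listed) in √10 steps, and values are medians of duplicate plates imaged at 4×.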

Dovitinib + Luminespib = compound: CN1CCN(c2ccc3nc(-c4c(N)c5c(F)cccc5[nH]c4=O)[nH]c3c2)CC1 [Dovitinib] + CCNC(=O)c1noc(-c2cc(C(C)C)c(O)cc2O)c1-c1ccc(CN2CCOCC2)cc1 [Luminespib] (partner 0.01 µM)
Procedure, shortened: as §1

Dovitinib + OSI-027 = compound: CN1CCN(c2ccc3nc(-c4c(N)c5c(F)cccc5[nH]c4=O)[nH]c3c2)CC1 [Dovitinib] + COc1cccc2cc(-c3nc([C@H]4CC[C@H](C(=O)O)CC4)n4ncnc(N)c34)[nH]c12 [OSI-027] (partner 0.5 µM)
Procedure, shortened: as §1

Dovitinib + Pictilisib = compound: CN1CCN(c2ccc3nc(-c4c(N)c5c(F)cccc5[nH]c4=O)[nH]c3c2)CC1 [Dovitinib] + CS(=O)(=O)N1CCN(Cc2cc3nc(-c4cccc5[nH]ncc45)nc(N4CCOCC4)c3s2)CC1 [Pictilisib] (partner 1 µM)
Procedure, shortened: as §1

| Cell Line | relative viability (Dovitinib + Palbociclib; first compound 0.02 µM) | relative viability (Dovitinib + Palbociclib; first compound 0.06325 µM) | relative viability (Dovitinib + Palbociclib; first compound 0.2 µM) | relative viability (Dovitinib + Palbociclib; first compound 0.6325 µM) | relative viability (Dovitinib + Palbociclib; first compound 2 µM) | relative viability (Dovitinib + Luminespib; first compound 0.02 µM) | relative viability (Dovitinib + Luminespib; first compound 0.06325 µM) | relative viability (Dovitinib + Luminespib; first compound 0.2 µM) | relative viability (Dovitinib + Luminespib; first compound 0.6325 µM) | relative viability (Dovitinib + Luminespib; first compound 2 µM) | relative viability (Dovitinib + OSI-027; first compound 0.02 µM) | relative viability (Dovitinib + OSI-027; first compound 0.06325 µM) | relative viability (Dovitinib + OSI-027; first compound 0.2 µM) | relative viability (Dovitinib + OSI-027; first compound 0.6325 µM) | relative viability (Dovitinib + OSI-027; first compound 2 µM) | relative viability (Dovitinib + Pictilisib; first compound 0.02 µM) | relative viability (Dovitinib + Pictilisib; first compound 0.06325 µM) | relative viability (Dovitinib + Pictilisib; first compound 0.2 µM) | relative viability (Dovitinib + Pictilisib; first compound 0.6325 µM) | relative viability (Dovitinib + Pictilisib; first compound 2 µM) |
| --- | --- | --- | --- | --- | --- | --- | --- | --- | --- | --- | --- | --- | --- | --- | --- | --- | --- | --- | --- | --- |
| LCLC-103H | 0.482 | 0.454 | 0.496 | 0.474 | 0.462 | 0.963 | 1 | 1.01 | 0.885 | 0.922 | 0.415 | 0.477 | 0.523 | 0.452 | 0.479 | 0.661 | 0.555 | 0.645 | 0.614 | 0.577 |
| LOU-NH91 | 0.526 | 0.528 | 0.535 | 0.553 | 0.525 | 0.322 | 0.308 | 0.335 | 0.327 | 0.349 | 0.786 | 0.662 | 0.731 | 0.817 | 0.721 | 0.523 | 0.553 | 0.526 | 0.518 | 0.535 |
| NCI-H1650 | 0.392 | 0.338 | 0.328 | 0.349 | 0.386 | 0.199 | 0.192 | 0.199 | 0.189 | 0.19 | 0.687 | 0.619 | 0.621 | 0.711 | 0.768 | 0.62 | 0.577 | 0.654 | 0.608 | 0.678 |
| NCI-H3122 | 0.226 | 0.173 | 0.184 | 0.181 | 0.21 | 0.0862 | 0.096 | 0.092 | 0.0979 | 0.112 | 1.02 | 0.959 | 1 | 0.876 | 0.915 | 0.793 | 0.588 | 0.47 | 0.603 | 0.66 |
| PC-3 [JPC-3] | 0.518 | 0.58 | 0.55 | 0.555 | 0.517 | 0.681 | 0.695 | 0.722 | 0.782 | 0.71 | 0.86 | 0.767 | 0.8 | 0.732 | 0.779 | 0.742 | 0.75 | 0.818 | 0.897 | 0.877 |
| NCI-H1651 | 0.538 | 0.532 | 0.526 | 0.53 | 0.549 | 0.901 | 0.902 | 0.996 | 0.752 | 0.683 | 0.733 | 0.723 | 0.765 | 0.77 | 0.688 | 0.577 | 0.528 | 0.598 | 0.551 | 0.5 |
| NCI-H2087 | 0.276 | 0.229 | 0.191 | 0.197 | 0.255 | 0.148 | 0.155 | 0.184 | 0.212 | 0.137 | 0.57 | 0.487 | 0.757 | 0.484 | 0.554 | 1.05 | 0.907 | 0.845 | 0.907 | 0.892 |
